“And” between values parts separate entries of the source, which are not always exact repeats. Identical values can stand only once. Numbers after ± are expanded uncertainties.
Conditions: Liquid, Hot wire method

FC(F)CC(F)(F)F [1,1,1,3,3-pentafluoropropane]
Conditions	thermal conductivity
283.24 K, 29153 kPa	0.1046 ± 0.0013 W/m/K
283.25 K, 29157 kPa	0.1041 ± 0.0013 W/m/K
283.29 K, 22330 kPa	0.1022 ± 0.0013 W/m/K
283.3 K, 22338 kPa	0.102 ± 0.0013 W/m/K
283.31 K, 16102 kPa	0.09978 ± 0.0013 W/m/K
283.34 K, 10490 kPa	0.09781 ± 0.0013 W/m/K
283.35 K, 10482 kPa	0.09779 ± 0.0013 W/m/K
283.39 K, 5078 kPa	0.09561 ± 0.0012 W/m/K
283.39 K, 5084 kPa	0.09578 ± 0.0012 W/m/K
283.4 K, 124 kPa	0.09369 ± 0.0012 W/m/K
297.28 K, 238 kPa	0.08846 ± 0.0011 W/m/K and 0.0884 ± 0.0011 W/m/K
297.3 K, 6681 kPa	0.09147 ± 0.0012 W/m/K
297.31 K, 6682 kPa	0.09132 ± 0.0012 W/m/K
297.33 K, 12567 kPa	0.09379 ± 0.0012 W/m/K
297.33 K, 12571 kPa	0.09396 ± 0.0012 W/m/K
297.36 K, 12582 kPa	0.09405 ± 0.0012 W/m/K
297.37 K, 12586 kPa	0.09376 ± 0.0012 W/m/K
297.49 K, 19332 kPa	0.09652 ± 0.0012 W/m/K
297.49 K, 19337 kPa	0.09665 ± 0.0012 W/m/K
297.69 K, 229 kPa	0.08847 ± 0.0011 W/m/K
297.69 K, 239 kPa	0.0881 ± 0.0011 W/m/K
297.7 K, 6677 kPa	0.0909 ± 0.0012 W/m/K and 0.09107 ± 0.0012 W/m/K
297.72 K, 12571 kPa	0.09392 ± 0.0012 W/m/K
297.73 K, 12572 kPa	0.0939 ± 0.0012 W/m/K
297.75 K, 12582 kPa	0.09397 ± 0.0012 W/m/K
297.75 K, 12583 kPa	0.09395 ± 0.0012 W/m/K
297.86 K, 19322 kPa	0.09664 ± 0.0012 W/m/K
297.86 K, 19340 kPa	0.09658 ± 0.0012 W/m/K
298.13 K, 233 kPa	0.08778 ± 0.0011 W/m/K
298.14 K, 234 kPa	0.08789 ± 0.0011 W/m/K
298.14 K, 6680 kPa	0.09232 ± 0.0012 W/m/K and 0.09104 ± 0.0012 W/m/K
298.14 K, 12568 kPa	0.09369 ± 0.0012 W/m/K
298.14 K, 12571 kPa	0.09358 ± 0.0012 W/m/K
298.17 K, 12583 kPa	0.09365 ± 0.0012 W/m/K
298.18 K, 12574 kPa	0.09352 ± 0.0012 W/m/K
298.26 K, 19324 kPa	0.09657 ± 0.0012 W/m/K
298.27 K, 19334 kPa	0.09654 ± 0.0012 W/m/K
298.58 K, 12568 kPa	0.09385 ± 0.0012 W/m/K
298.59 K, 12563 kPa	0.09379 ± 0.0012 W/m/K
298.6 K, 6668 kPa	0.09111 ± 0.0012 W/m/K
298.6 K, 6673 kPa	0.0911 ± 0.0012 W/m/K
298.61 K, 230 kPa	0.08804 ± 0.0011 W/m/K
298.61 K, 234 kPa	0.08787 ± 0.0011 W/m/K
298.62 K, 12577 kPa	0.09374 ± 0.0012 W/m/K
298.62 K, 12578 kPa	0.09384 ± 0.0012 W/m/K
298.7 K, 19323 kPa	0.09665 ± 0.0012 W/m/K
298.71 K, 19329 kPa	0.09658 ± 0.0012 W/m/K
298.72 K, 26079 kPa	0.09945 ± 0.0013 W/m/K
298.72 K, 26080 kPa	0.09952 ± 0.0013 W/m/K
298.73 K, 33915 kPa	0.1022 ± 0.0013 W/m/K
298.73 K, 33916 kPa	0.1019 ± 0.0013 W/m/K
298.74 K, 41639 kPa	0.1043 ± 0.0013 W/m/K
298.75 K, 41635 kPa	0.1043 ± 0.0013 W/m/K
299.08 K, 12562 kPa	0.09373 ± 0.0012 W/m/K
299.09 K, 12561 kPa	0.09382 ± 0.0012 W/m/K
299.09 K, 26077 kPa	0.09835 ± 0.0013 W/m/K
299.09 K, 26079 kPa	0.09892 ± 0.0013 W/m/K
299.09 K, 33913 kPa	0.1011 ± 0.0013 W/m/K
299.09 K, 33914 kPa	0.1013 ± 0.0013 W/m/K
299.09 K, 41634 kPa	0.1044 ± 0.0013 W/m/K
299.09 K, 41635 kPa	0.1044 ± 0.0013 W/m/K
299.1 K, 6675 kPa	0.09125 ± 0.0012 W/m/K
299.11 K, 6673 kPa	0.0912 ± 0.0012 W/m/K
299.11 K, 12580 kPa	0.0938 ± 0.0012 W/m/K
299.12 K, 12583 kPa	0.09382 ± 0.0012 W/m/K
299.14 K, 227 kPa	0.08804 ± 0.0011 W/m/K
299.14 K, 238 kPa	0.08799 ± 0.0011 W/m/K
299.19 K, 19316 kPa	0.09651 ± 0.0012 W/m/K
299.19 K, 19328 kPa	0.09648 ± 0.0012 W/m/K
299.48 K, 41634 kPa	0.1043 ± 0.0013 W/m/K
299.49 K, 33910 kPa	0.1012 ± 0.0013 W/m/K
299.49 K, 33912 kPa	0.1011 ± 0.0013 W/m/K
299.49 K, 41635 kPa	0.1042 ± 0.0013 W/m/K
299.5 K, 26073 kPa	0.09896 ± 0.0013 W/m/K
299.5 K, 26076 kPa	0.099 ± 0.0013 W/m/K
299.89 K, 41632 kPa	0.1042 ± 0.0013 W/m/K
299.9 K, 41629 kPa	0.1042 ± 0.0013 W/m/K
299.91 K, 33908 kPa	0.1013 ± 0.0013 W/m/K
299.92 K, 33910 kPa	0.1013 ± 0.0013 W/m/K
299.93 K, 26071 kPa	0.09862 ± 0.0013 W/m/K
299.93 K, 26073 kPa	0.09884 ± 0.0013 W/m/K
300.35 K, 41624 kPa	0.1042 ± 0.0013 W/m/K
300.35 K, 41629 kPa	0.1044 ± 0.0013 W/m/K
300.37 K, 33905 kPa	0.1015 ± 0.0013 W/m/K
300.38 K, 33907 kPa	0.1015 ± 0.0013 W/m/K
300.4 K, 26067 kPa	0.09874 ± 0.0013 W/m/K
300.41 K, 26067 kPa	0.09891 ± 0.0013 W/m/K
301.58 K, 62451 kPa	0.1103 ± 0.0014 W/m/K
301.58 K, 62455 kPa	0.11 ± 0.0014 W/m/K
301.59 K, 68041 kPa	0.1115 ± 0.0014 W/m/K
301.59 K, 68044 kPa	0.1115 ± 0.0014 W/m/K
301.6 K, 9757 kPa	0.09158 ± 0.0012 W/m/K
301.61 K, 9755 kPa	0.09136 ± 0.0012 W/m/K
301.62 K, 52493 kPa	0.1071 ± 0.0014 W/m/K
301.63 K, 4924 kPa	0.08962 ± 0.0011 W/m/K
301.63 K, 52493 kPa	0.1066 ± 0.0014 W/m/K
301.64 K, 4920 kPa	0.089 ± 0.0011 W/m/K
301.65 K, 27815 kPa	0.0982 ± 0.0013 W/m/K
301.65 K, 43573 kPa	0.1041 ± 0.0013 W/m/K
301.65 K, 43574 kPa	0.104 ± 0.0013 W/m/K
301.66 K, 27823 kPa	0.09824 ± 0.0013 W/m/K
301.66 K, 35535 kPa	0.1015 ± 0.0013 W/m/K
301.66 K, 35538 kPa	0.1014 ± 0.0013 W/m/K
301.67 K, 289 kPa	0.08665 ± 0.0011 W/m/K
301.67 K, 293 kPa	0.08649 ± 0.0011 W/m/K
301.69 K, 21591 kPa	0.09669 ± 0.0012 W/m/K
301.69 K, 21597 kPa	0.09656 ± 0.0012 W/m/K
301.75 K, 15353 kPa	0.09399 ± 0.0012 W/m/K
301.75 K, 15355 kPa	0.0941 ± 0.0012 W/m/K
301.92 K, 62442 kPa	0.11 ± 0.0014 W/m/K
301.92 K, 62448 kPa	0.1098 ± 0.0014 W/m/K
301.93 K, 68033 kPa	0.1115 ± 0.0014 W/m/K
301.93 K, 68038 kPa	0.1117 ± 0.0014 W/m/K
301.97 K, 52486 kPa	0.1073 ± 0.0014 W/m/K
301.97 K, 52491 kPa	0.107 ± 0.0014 W/m/K
301.98 K, 9757 kPa	0.09137 ± 0.0012 W/m/K
301.99 K, 9759 kPa	0.09137 ± 0.0012 W/m/K
302 K, 43569 kPa	0.104 ± 0.0013 W/m/K
302.01 K, 43570 kPa	0.1038 ± 0.0013 W/m/K
302.02 K, 35523 kPa	0.1016 ± 0.0013 W/m/K
302.02 K, 35525 kPa	0.1012 ± 0.0013 W/m/K
302.03 K, 4920 kPa	0.08894 ± 0.0011 W/m/K
302.03 K, 4923 kPa	0.08935 ± 0.0011 W/m/K
302.03 K, 27815 kPa	0.09838 ± 0.0013 W/m/K
302.03 K, 27819 kPa	0.09867 ± 0.0013 W/m/K
302.07 K, 299 kPa	0.08696 ± 0.0011 W/m/K
302.07 K, 21586 kPa	0.09614 ± 0.0012 W/m/K
302.07 K, 21589 kPa	0.09606 ± 0.0012 W/m/K
302.08 K, 296 kPa	0.0866 ± 0.0011 W/m/K
302.14 K, 15358 kPa	0.09347 ± 0.0012 W/m/K
302.14 K, 15361 kPa	0.09381 ± 0.0012 W/m/K
302.29 K, 62439 kPa	0.1101 ± 0.0014 W/m/K
302.29 K, 68021 kPa	0.1115 ± 0.0014 W/m/K
302.3 K, 62445 kPa	0.11 ± 0.0014 W/m/K
302.3 K, 68022 kPa	0.1116 ± 0.0014 W/m/K
302.36 K, 52487 kPa	0.1067 ± 0.0014 W/m/K
302.36 K, 52489 kPa	0.107 ± 0.0014 W/m/K
302.39 K, 43573 kPa	0.104 ± 0.0013 W/m/K

Source: the NIST ThermoML archive (doi:10.1021/acs.jced.6b00350)
